Structures can show the parent of a compound that is named as a salt. Where two headings read alike, the source gives them in different places.
How the values were obtained:
[1] = system: NCI-H292 lung cancer cells; assay: FDA drug screening, complete media vs cholesterol-free media with simvastatin (TABLE 2); format: cell-based, human
[2] = system: NCI-H292 lung cancer cells; assay: FDA drug screening, complete media vs cholesterol-free media without statin (TABLE 1); format: cell-based, human
[3] = NCI-H292 cells, FDA library drug in cholesterol-free media with simvastatin 0.04 μM
[4] = NCI-H292 cells, FDA library drug in complete media
[5] = complete media vs cholesterol-free media + simvastatin (0.04 μM), […]
[6] = Complete minus Cholesterol-free, […]
[7] = NCI-H292 cells, FDA drug library screen, cholesterol-free media without statin
[8] = NCI-H292 cells, FDA drug library screen, complete media
[9] = complete media vs cholesterol-free media + simvastatin (0.04 μM), >0 enhanced anti-cancer activity, about 0 neutral, <0 antagonist
[10] = NCI-H292 cells, cholesterol-free media without statin
[11] = complete vs cholesterol-free media, greater than 0 enhanced anti-cancer activity, about 0 neutral, below 0 antagonists
[12] = NCI-H292 cells, cholesterol-free media with simvastatin 0.04 μM, FDA drug library screen (TABLE 2)
[13] = NCI-H292 cells, complete media, FDA drug library screen (TABLE 2)
[14] = complete media minus cholesterol-free media + simvastatin (0.04 μM), >0 enhanced anti-cancer activity, about 0 neutral, <0 antagonist
[15] = Complete minus Cholesterol-free, >0 enhanced anti-cancer activity, about 0 neutral, <0 antagonist
[16] = NCI-H292 cells, cholesterol-free media without statin, FDA drug library screen
[17] = complete vs cholesterol-free media, >0 enhanced anti-cancer activity, about 0 neutral, <0 antagonist
[18] = NCI-H292 cells, complete media, FDA drug library screen
[19] = complete media minus cholesterol-free media + simvastatin (0.04 μM), […]
[20] = NCI-H292 cells in cholesterol-free media without statin
[21] = NCI-H292 cells in complete media
[22] = NCI-H292 cells, FDA drug library screen, cholesterol-free media with simvastatin 0.04 μM
[23] = Complete minus Cholesterol-free, greater than 0 enhanced anti-cancer activity, about 0 neutral, below 0 antagonist
[24] = complete media minus cholesterol-free media + simvastatin, >0 enhanced anti-cancer activity, about 0 neutral, <0 antagonist
[25] = NCI-H292 cells, cholesterol-free media with simvastatin 0.04 μM, cell growth value in FDA drug screen
[26] = NCI-H292 cells, complete media, cell growth value in FDA drug screen

CO[C@@H]1[C@H](OC(=O)/C=C/C=C/C=C/C=C/C(=O)O)CC[C@]2(CO2)[C@H]1[C@@]1(C)O[C@@H]1CC=C(C)C [Fumagillin]
Cholesterol-free media + simvastatin (0.04 μM) [1, 3]: 1.348 | Complete Media [1, 4]: 1.08 | Difference [1, 5]: −0.27 | Difference [2, 6]: −0.08 | Cholesterol-free [2, 7]: 0.6031 | Complete [2, 8]: 0.519

O=C(O)/C=C/C(=O)O [Fumaric acid]
Cholesterol-free media + simvastatin (0.04 μM) [1, 3]: 1.117 | Complete Media [1, 4]: 0.8401 | Difference [1, 9]: −0.28 | Cholesterol-free [2, 10]: 1.029 | Complete ([2]; NCI-H292 cells, complete media): 0.6691 | Difference [2, 11]: −0.36

O=C1CN(/N=C/C=C/c2ccc([N+](=O)[O-])o2)C(=O)N1 [Furagin]
Cholesterol-free media + simvastatin (0.04 μM) [1, 12]: 1.137 | Complete Media [1, 13]: 1.079 | Difference [1, 14]: −0.06 | Difference [2, 15]: −0.23 | Cholesterol-free [2, 10]: 1.216 | Complete ([2]; NCI-H292 cells, complete media): 0.9861

O=C1OCCN1/N=C/c1ccc([N+](=O)[O-])o1 [Furazolidone]
Cholesterol-free media + simvastatin (0.04 μM) [1, 12]: 0.938 | Complete Media [1, 13]: 0.9029 | Difference [1, 14]: −0.04 | Cholesterol-free [2, 16]: 0.797 | Difference [2, 17]: 0.35

CC(=O)O[C@H]1C[C@@]2(C)[C@@H](C[C@@H](O)[C@H]3[C@@]4(C)CC[C@@H](O)[C@@H](C)[C@@H]4CC[C@@]32C)/C1=C(\CCC=C(C)C)C(=O)O [Fusidic acid (sodium salt)]
Cholesterol-free media + simvastatin (0.04 μM) [1, 12]: 0.9882 | Complete Media [1, 13]: 0.9484 | Difference [1, 14]: −0.04 | Cholesterol-free [2, 16]: 0.7301 | Complete [2, 18]: 1.107 | Difference [2, 17]: 0.38

NCC1(CC(=O)O)CCCCC1 [Gabapentin (hydrochloride)]
Cholesterol-free media + simvastatin (0.04 μM) [1, 12]: 1.09 | Complete Media [1, 13]: 1.102 | Difference [1, 19]: 0.01 | Difference [2, 6]: −0.52 | Cholesterol-free [2, 20]: 1.513 | Complete [2, 21]: 0.9969

CC(OC(=O)NCC1(CC(=O)O)CCCCC1)OC(=O)C(C)C (centres unmarked) [Gabapentin enacarbil]
Cholesterol-free media + simvastatin (0.04 μM) [1, 22]: 1.032 | Complete Media [1, 8]: 0.9332 | Difference [1, 9]: −0.10 | Difference [2, 23]: −0.14 | Cholesterol-free [2, 7]: 1.017 | Complete [2, 8]: 0.8727

NCC1(CC(=O)O)CCCCC1 [Gabapentin]
Cholesterol-free media + simvastatin (0.04 μM) [1, 22]: 1.126 | Complete Media [1, 8]: 1.036 | Difference [1, 5]: −0.09 | Difference [2, 6]: −0.30 | Cholesterol-free [2, 10]: 1.237 | Complete ([2]; NCI-H292 cells, complete media): 0.9357

CNC(=O)CN(CCN(CCN(CC(=O)[O-])CC(=O)NC)CC(=O)[O-])CC(=O)[O-].O.[Gd+3] [Gadodiamide (hydrate)]
Cholesterol-free media + simvastatin (0.04 μM) [1, 22]: 1.113 | Complete Media [1, 8]: 0.9905 | Difference [1, 5]: −0.12 | Difference [2, 6]: −0.65 | Cholesterol-free [2, 20]: 1.387 | Complete [2, 21]: 0.7342

COc1ccc2c3c1O[C@H]1C[C@@H](O)C=C[C@@]31CCN(C)C2 [Galanthamine (hydrobromide)]
Cholesterol-free media + simvastatin (0.04 μM) ([1]; NCI-H292 cells, cholesterol-free media with simvastatin 0.04 μM, […]): 1.411 | Complete Media ([1]; NCI-H292 cells, complete media, […]): 1.432 | Difference ([1]; complete media minus cholesterol-free media + simvastatin, […]): 0.02 | Difference [2, 6]: −0.25 | Cholesterol-free [2, 10]: 1.284 | Complete ([2]; NCI-H292 cells, complete media): 1.033

COc1ccc2c3c1O[C@H]1C[C@@H](O)C=C[C@@]31CCN(C)C2 [Galanthamine]
Cholesterol-free media + simvastatin (0.04 μM) [1, 12]: 1.051 | Complete Media [1, 13]: 1.046 | Difference [1, 19]: −0.01 | Cholesterol-free [2, 10]: 1.164 | Complete ([2]; NCI-H292 cells, complete media): 0.829 | Difference ([2]; complete vs cholesterol-free media, […]): −0.33

CC[N+](CC)(CC)CCOc1cccc(OCC[N+](CC)(CC)CC)c1OCC[N+](CC)(CC)CC [Gallamine Triethiodide]
Cholesterol-free media + simvastatin (0.04 μM) [1, 3]: 1.372 | Complete Media [1, 4]: 1.027 | Difference [1, 9]: −0.35 | Difference [2, 15]: −0.28 | Cholesterol-free [2, 10]: 1.311 | Complete ([2]; NCI-H292 cells, complete media): 1.029

O=C(O)c1cc(O)c(O)c(O)c1 [Gallic acid]
Cholesterol-free media + simvastatin (0.04 μM) [1, 3]: 2.089 | Complete Media [1, 4]: 1.613 | Difference [1, 9]: −0.48 | Difference [2, 23]: −0.08 | Cholesterol-free [2, 7]: 1.301 | Complete [2, 8]: 1.222

CCCN1C[C@H](C)[C@@H](O)[C@](C)(O)[C@@H](CC)OC(=O)[C@H](C)[C@@H](O[C@H]2C[C@@](C)(OC)[C@@H](O)[C@H](C)O2)[C@H](C)[C@@H](O[C@@H]2O[C@H](C)C[C@H](N(C)C)[C@H]2O)[C@](C)(O)C[C@H]1C [Gamithromycin]
Cholesterol-free media + simvastatin (0.04 μM) [1, 22]: 1.403 | Complete Media [1, 8]: 1.765 | Difference [1, 24]: 0.36 | Cholesterol-free [2, 10]: 1.35 | Complete ([2]; NCI-H292 cells, complete media): 0.886 | Difference [2, 11]: −0.46

Nc1nc(O)c2ncn(COC(CO)CO)c2n1 [Ganciclovir (sodium)]
Cholesterol-free media + simvastatin (0.04 μM) [1, 12]: 1.423 | Complete Media [1, 13]: 1.395 | Difference [1, 14]: −0.03 | Difference [2, 15]: −0.19 | Cholesterol-free [2, 10]: 0.9099 | Complete ([2]; NCI-H292 cells, complete media): 0.7218

Nc1nc(O)c2ncn(COC(CO)CO)c2n1 [Ganciclovir]
Cholesterol-free media + simvastatin (0.04 μM) [1, 12]: 0.88 | Complete Media [1, 13]: 0.8599 | Difference [1, 14]: −0.02 | Difference [2, 15]: 0.07 | Cholesterol-free [2, 16]: 0.8931 | Complete [2, 18]: 0.9638

OCc1ccc(O[C@@H]2O[C@H](CO)[C@@H](O)[C@H](O)[C@H]2O)cc1 [Gastrodin]
Cholesterol-free media + simvastatin (0.04 μM) [1]: 1.131 | Complete Media [1]: 1.355 | Difference [1]: 0.22 | Cholesterol-free [2]: 1.466 | Complete [2]: 1.162 | Difference [2]: −0.30

COc1c(N2CCNC(C)C2)c(F)cc2c(=O)c(C(=O)O)cn(C3CC3)c12 (centres unmarked) [Gatifloxacin (hydrochloride)]
Cholesterol-free media + simvastatin (0.04 μM) [1, 22]: 0.9302 | Complete Media [1, 8]: 0.7736 | Difference [1, 9]: −0.16 | Difference [2, 23]: −0.09 | Cholesterol-free [2, 7]: 1.038 | Complete [2, 8]: 0.9512

COc1c(N2CCNC(C)C2)c(F)cc2c(=O)c(C(=O)O)cn(C3CC3)c12 (centres unmarked) [Gatifloxacin]
Cholesterol-free media + simvastatin (0.04 μM) [1, 25]: 0.9418 | Complete Media [1, 26]: 1.02 | Difference [1, 24]: 0.08 | Cholesterol-free [2, 16]: 1.137 | Complete [2, 18]: 1.266 | Difference [2, 17]: 0.13

CC(C)=CCC/C(C)=C/CC/C(C)=C/CCC(=O)OC/C=C(\C)CCC=C(C)C [Gefarnate]
Cholesterol-free media + simvastatin (0.04 μM) [1]: 1.714 | Complete Media [1]: 1.906 | Difference [1]: 0.19 | Cholesterol-free [2]: 1.413 | Complete [2]: 0.9135 | Difference [2]: −0.50

COc1cc2ncnc(Nc3ccc(F)c(Cl)c3)c2cc1OCCCN1CCOCC1 [Gefitinib (hydrochloride)]
Cholesterol-free media + simvastatin (0.04 μM) [1, 22]: 0.9234 | Complete Media [1, 8]: 0.8455 | Difference [1, 9]: −0.08 | Cholesterol-free [2, 16]: 0.6497 | Complete [2, 18]: 0.8718 | Difference [2, 17]: 0.22

COc1cc2ncnc(Nc3ccc(F)c(Cl)c3)c2cc1OCCCN1CCOCC1 [Gefitinib]
Cholesterol-free media + simvastatin (0.04 μM) [1, 25]: 0.5074 | Complete Media [1, 26]: 0.6027 | Difference [1, 24]: 0.10 | Difference [2, 15]: −0.25 | Cholesterol-free [2, 10]: 0.6996 | Complete ([2]; NCI-H292 cells, complete media): 0.4472

Nc1ccn([C@@H]2O[C@H](CO)[C@@H](O)C2(F)F)c(=O)n1 [Gemcitabine (hydrochloride)]
Cholesterol-free media + simvastatin (0.04 μM) [1, 12]: 0.04392 | Complete Media [1, 13]: 0.02306 | Difference [1, 14]: −0.02 | Difference [2, 15]: −0.04 | Cholesterol-free [2, 16]: 0.05262 | Complete [2, 18]: 0.01403

Source: patent US20250144067A1, “PERSONALIZED STARVATION THERAPY FOR CANCER” (Faeth Therapeutics, Inc., priority 2021, published 2025)
